Read-outs that look alike come from different tables or passages of the source.
Legend:
Type in all cases: cell-based
SR = test: NCI 60 antitumor screening (single dose / five doses); conditions: Homo sapiens, read-out: Growth inhibition percentage (GI %)
HOP-92 = test: as above; conditions: Homo sapiens
A549/ATCC = test: NCI 60 antitumor screening (single dose); conditions: Homo sapiens; A549/ATCC (non-small cell lung cancer), single dose 10 μM; read-out: Growth inhibition percentage (GI %)
Outline: (§1)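 Values are GI% (100 minus percent growth, G%) from the NCI 60 cell line screen at one 10 μM concentration. Tests were done in triplicate under NCI protocol, with a mean across the whole panel reported as well.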

CAKI-1 = test: NCI 60 antitumor screening (single dose); conditions: Homo sapiens
Outline: as §1

HCC-2998 = test: NCI 60 antitumor screening (single dose); conditions: Homo sapiens; HCC-2998 (colon cancer), single dose 10 μM; read-out: Growth inhibition percentage (GI %)
Outline: (§2)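 Values are GI% (100 − G%) from the NCI 60-line single-dose screen, compound at 10 μM.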

HOP-62 = test: NCI 60 antitumor screening (single dose); conditions: Homo sapiens; HOP-62 (non-small cell lung cancer), single dose 10 μM; read-out: Growth inhibition percentage (GI %)
Outline: as §2

HS 578T = test: NCI 60 antitumor screening (single dose); conditions: Homo sapiens, read-out: Growth inhibition percentage (GI %)
Outline: as §1

KM 12 = test: NCI 60 antitumor screening (single dose); conditions: Homo sapiens, KM12; KM 12 (colon cancer), single dose 10 μM; read-out: Growth inhibition percentage (GI %)
Outline: as §1

M14 = test: NCI 60 antitumor screening (single dose); conditions: Homo sapiens
Outline: as §1

MCF7 = test: NCI 60 antitumor screening (single dose); conditions: Homo sapiens
Outline: as §1

NCI-H226 = test: NCI 60 antitumor screening (single dose); conditions: Homo sapiens; NCI-H226 (non-small cell lung cancer), single dose 10 μM; read-out: Growth inhibition percentage (GI %)
Outline: as §1

NCI-H23 = test: NCI 60 antitumor screening (single dose); conditions: Homo sapiens; NCI-H23 (non-small cell lung cancer), single dose 10 μM; read-out: Growth inhibition percentage (GI %)
Outline: as §2

NCI-H322M = test: NCI 60 antitumor screening (single dose); conditions: Homo sapiens; NCI-H322M (non-small cell lung cancer), single dose 10 μM; read-out: Growth inhibition percentage (GI %)
Outline: as §1

NCI-H460 = test: NCI 60 antitumor screening (single dose); conditions: Homo sapiens; NCI-H460 (non-small cell lung cancer), single dose 10 μM; read-out: Growth inhibition percentage (GI %)
Outline: as §2

NCI-H522 = test: NCI 60 antitumor screening (single dose); conditions: Homo sapiens; NCI-H522 (non-small cell lung cancer), single dose 10 μM; read-out: Growth inhibition percentage (GI %)
Outline: as §2

OVCAR-3 = test: NCI 60 antitumor screening (single dose); conditions: Homo sapiens
Outline: as §1

OVCAR-4 = test: NCI 60 antitumor screening (single dose); conditions: Homo sapiens
Outline: as §1

OVCAR-5 = test: NCI 60 antitumor screening (single dose); conditions: Homo sapiens
Outline: as §2

OVCAR-8 = test: NCI 60 antitumor screening (single dose); conditions: Homo sapiens
Outline: as §1

PC-3 = test: NCI 60 antitumor screening (single dose); conditions: Homo sapiens
Outline: as §1

SF-268 = test: NCI 60 antitumor screening (single dose); conditions: Homo sapiens; SF-268 (CNS cancer), single dose 10 μM; read-out: Growth inhibition percentage (GI %)
Outline: as §2

SK-OV-3 = test: NCI 60 antitumor screening (single dose); conditions: Homo sapiens
Outline: as §2

SNB-19 = test: NCI 60 antitumor screening (single dose); conditions: Homo sapiens; SNB-19 (CNS cancer), single dose 10 μM; read-out: Growth inhibition percentage (GI %)
Outline: as §1

TK-10 = test: NCI 60 antitumor screening (single dose); conditions: Homo sapiens
Outline: as §1

U251 = test: NCI 60 antitumor screening (single dose); conditions: Homo sapiens, U-251; U251 (CNS cancer), single dose 10 μM; read-out: Growth inhibition percentage (GI %)
Outline: as §2

MDA-MB-435 = test: NCI 60 antitumor screening (single dose / five doses); conditions: Homo sapiens
RXF 393 = test: as above; conditions: Homo sapiens
[1] = SR (leukaemia), single dose 10 μM
[2] = HOP-92 (non-small cell lung cancer), single dose 10 μM, read-out: Growth inhibition percentage (GI %)
[3] = CAKI-1 (renal cancer), single dose 10 μM, read-out: Growth inhibition percentage (GI %)
[4] = HS 578T (breast cancer), single dose 10 μM
[5] = M14 (melanoma), single dose 10 μM, read-out: Growth inhibition percentage (GI %)
[6] = MCF7 (breast cancer), single dose 10 μM, read-out: Growth inhibition percentage (GI %)
[7] = OVCAR-3 (ovarian cancer), single dose 10 μM, read-out: Growth inhibition percentage (GI %)
[8] = OVCAR-4 (ovarian cancer), single dose 10 μM, read-out: Growth inhibition percentage (GI %)
[9] = OVCAR-5 (ovarian cancer), single dose 10 μM, read-out: Growth inhibition percentage (GI %)
[10] = OVCAR-8 (ovarian cancer), single dose 10 μM, read-out: Growth inhibition percentage (GI %)
[11] = PC-3 (prostate cancer), single dose 10 μM, read-out: Growth inhibition percentage (GI %)
[12] = SK-OV-3 (ovarian cancer), single dose 10 μM, read-out: Growth inhibition percentage (GI %)
[13] = TK-10 (renal cancer), single dose 10 μM, read-out: Growth inhibition percentage (GI %)
[14] = MDA-MB-435 (melanoma), single dose 10 μM, read-out: Growth inhibition percentage (GI %)
[15] = RXF 393 (renal cancer), single dose 10 μM, read-out: Growth inhibition percentage (GI %)

SMILES | inhibition at 10 µM (SR; [1]) [%] | inhibition at 10 µM (HOP-92; [2]) [%] | inhibition at 10 µM (A549/ATCC) [%] | inhibition at 10 µM (CAKI-1; [3]) [%] | inhibition at 10 µM (HCC-2998) [%] | inhibition at 10 µM (HOP-62) [%] | inhibition at 10 µM (HS 578T; [4]) [%] | inhibition at 10 µM (KM 12) [%] | inhibition at 10 µM (M14; [5]) [%] | inhibition at 10 µM (MCF7; [6]) [%] | inhibition at 10 µM (NCI-H226) [%] | inhibition at 10 µM (NCI-H23) [%] | inhibition at 10 µM (NCI-H322M) [%] | inhibition at 10 µM (NCI-H460) [%] | inhibition at 10 µM (NCI-H522) [%] | inhibition at 10 µM (OVCAR-3; [7]) [%] | inhibition at 10 µM (OVCAR-4; [8]) [%] | inhibition at 10 µM (SF-268) [%] | inhibition at 10 µM (SNB-19) [%] | inhibition at 10 µM (U251) [%] | also measured
Clc1cccc(/C=N/Nc2nc(N/N=C/c3cccc(Cl)c3Cl)nc(N3CCOCC3)n2)c1Cl [compound 6h, 2,4-Bis[(E)-2-[(2,3-Dichlorophenyl)methylidene]hydrazin-1-yl]-6-(morpholin-4-yl)-1,3,5-triazine] | 51.9 | -5.67 | 3.4 | -1.35 | -6.13 | -3.7 | -8.95 | 8.19 | -4.08 | 25.1 | 14.6 | 25.5 | 11.9 | -0.07 | 21.4 | -2.72 | 3.18 | 13 | 12.3 | 21 | inhibition at 10 µM (OVCAR-5; [9]): -10.2%; inhibition at 10 µM (OVCAR-8; [10]): 44.6%; inhibition at 10 µM (PC-3; [11]): 14.5%; inhibition at 10 µM (SK-OV-3; [12]): -15.1%; inhibition at 10 µM (TK-10; [13]): -29.2%; inhibition at 10 µM (MDA-MB-435; [14]): -6.86%; inhibition at 10 µM (RXF 393; [15]): 5.06%
O=[N+]([O-])c1cc(/C=N/Nc2nc(N/N=C/c3ccc(Cl)c([N+](=O)[O-])c3)nc(N3CCOCC3)n2)ccc1Cl [compound 6i, 2,4-Bis[(E)-2-[(4-Chloro-3-nitrophenyl)methylidene]hydrazin-1-yl]-6-(morpholin-4-yl)-1,3,5-triazine] | – | – | -8.71 | – | -5.78 | -5.02 | – | 6.79 | – | – | -3.53 | 3.66 | 2.28 | -1.58 | 0.32 | – | – | 0.39 | 0.85 | -5.95 | inhibition at 10 µM (SR; SR): 18.5%; inhibition at 10 µM (HOP-92; HOP-92, read-out: Growth inhibition percentage (GI %)): -20.3%; inhibition at 10 µM (CAKI-1; CAKI-1, read-out: Growth inhibition percentage (GI %)): -3.02%; inhibition at 10 µM (HS 578T; Hs-578T): -5.27%; inhibition at 10 µM (M14; M14, read-out: Growth inhibition percentage (GI %)): -11.5%; inhibition at 10 µM (MCF7; MCF7, read-out: Growth inhibition percentage (GI %)): 56.7%; inhibition at 10 µM (OVCAR-3; OVCAR-3, read-out: Growth inhibition percentage (GI %)): -10%; inhibition at 10 µM (OVCAR-4; OVCAR-4, read-out: Growth inhibition percentage (GI %)): -12.5%; inhibition at 10 µM (OVCAR-5; OVCAR-5, read-out: Growth inhibition percentage (GI %)): -9.28%; inhibition at 10 µM (OVCAR-8; OVCAR-8, read-out: Growth inhibition percentage (GI %)): 3.42%; inhibition at 10 µM (PC-3; PC-3, read-out: Growth inhibition percentage (GI %)): -0.63%; inhibition at 10 µM (SK-OV-3; SK-OV-3, read-out: Growth inhibition percentage (GI %)): -22.5%; inhibition at 10 µM (TK-10; TK-10, read-out: Growth inhibition percentage (GI %)): -24.4%; inhibition at 10 µM (MDA-MB-435; MDA-MB-435, read-out: Growth inhibition percentage (GI %)): -7.52%; inhibition at 10 µM (RXF 393; RXF 393, read-out: Growth inhibition percentage (GI %)): -20.7%
Oc1ccc(/C=N/Nc2nc(N/N=C/c3ccc(O)c(O)c3)nc(N3CCOCC3)n2)cc1O [compound 6j, 4-[(1e)-(2-{4-[(E)-2-[(3,4-Dihydroxyphenyl)methylidene]hydrazin-1-yl]-6-(morpholin-4-yl)-1,3,5-triazin-2-yl}hydrazin-1-ylidene)methyl]benzene-1,2-diol] | 8.3 | -7.35 | 1.02 | 0.69 | -6.4 | -5.33 | -5.42 | -1.91 | -4.69 | 5.79 | 1.59 | 0.57 | 9.4 | -7.99 | 3.1 | -4.79 | -1.23 | -2.53 | -4.37 | -3.1 | inhibition at 10 µM (OVCAR-5; [9]): -3.8%; inhibition at 10 µM (OVCAR-8; [10]): -0.99%; inhibition at 10 µM (PC-3; [11]): -5.8%; inhibition at 10 µM (SK-OV-3; [12]): -7.04%; inhibition at 10 µM (TK-10; [13]): -9.62%; inhibition at 10 µM (MDA-MB-435; [14]): -3.12%; inhibition at 10 µM (RXF 393; [15]): -20.4%
C(=N\Nc1nc(N/N=C/c2ccc3c(c2)OCO3)nc(N2CCOCC2)n1)/c1ccc2c(c1)OCO2 [compound 6k, 2,4-Bis[(E)-2-(2H-1,3-Benzodioxol-5-ylmethylidene)hydrazin-1-yl]-6-(morpholin-4-yl)-1,3,5-triazine] | 85 | 8.47 | 17.7 | 21.1 | 8.26 | 13.6 | 16.7 | 17.4 | 5.09 | 30.9 | 22 | 17 | 11.8 | 12.2 | 12.5 | 6.73 | 8.16 | 8.94 | 5.57 | 24.1 | inhibition at 10 µM (OVCAR-5; [9]): -1.78%; inhibition at 10 µM (OVCAR-8; [10]): 26%; inhibition at 10 µM (PC-3; [11]): 30.1%; inhibition at 10 µM (SK-OV-3; [12]): -11.8%; inhibition at 10 µM (TK-10; [13]): -3.24%; inhibition at 10 µM (MDA-MB-435; [14]): 4.07%; inhibition at 10 µM (RXF 393; [15]): 30.5%

Reference: publication PMC9848300, “Discovery of novel enasidenib analogues targeting inhibition of mutant isocitrate dehydrogenase 2 as antileukaemic agents” (Journal of Enzyme Inhibition and Medicinal Chemistry, 2023)
